# Entries after “also recorded” stand apart in the source; their conditions may differ. Read-outs that look alike come from different tables or passages of the source. Marks after values point to notes of the source that are not given here.
# Experiments:
# [1] = tested on: canine model of septic shock (Pseudomonas aeruginosa); conditions: for Systemic vascular resistance: mean (SD in the cell below); for ALT (alanine transaminase) / AST (aspartate transaminase) / Arterial pH / CK (creatine kinase) / Cardiac output / LD (lactate dehydrogenase) / Lactate / Mean arterial pressure / Oxygen delivery / Pulmonary wedge pressure / Stroke work index / Troponin / Heart Rates: mean ± SD; for effect of treatment on mean arterial pressure (MAP): infusion started at septic shock condition, 3 hr and 5 hr post treatment; for effect of treatment on blood lactate concentration: over the course of the study; for effect of treatment on heart rate (HR): 3 hrs and 5 hrs posttreatment vs other septic groups
# Description: We used a bacteremic model of Pseudomonas aeruginosa in this study as previously described (20). We used this particular model, since we wanted to measure mitochondrial function and LA under conditions of an acute and intensive inflammatory response analogous to that which would occur in a severe bout of SS in the clinical condition. […] Over the course of the experiment, we studied the animals (18 to 26 kg) while anesthetized with sufentanil citrate (0.05-0.3 ug/kg/min) and midazolam (5 ug/kg/min), and while being ventilated receiving 100% oxygen to maintain arterial around PO2 ˜400 mmHg. We adjusted the ventilator rate over the course of the study to attenuate the development of the metabolic acidosis that is usually observed (20).
# To assess hemodynamics in this model, we inserted vascular catheters under sterile conditions as previously described (20), after which we connected the catheters to pressure transducers (Cobe, Argon) that were referenced relative to the left atrium and connected to a chart recorder (Astro-Med, W Warwick, R.I.). To measure MAP, we inserted a polyethylene catheter into the right femoral artery, while to measure pulmonary vascular pressures, we inserted a Swanz-Ganz catheter (Edwards Lifesciences, Irvine, Calif.) by percutaneous techniques through the right jugular vein. From the Swanz-Ganz catheter, we obtained measurements of pulmonary arterial pressure (Ppa), wedge pressure (Pwp), and right atrial pressure (Rap), as well as determinations of thermodilution cardiac output (CO).
# From the hemodynamic measurements, we calculated SV from CO/heart rates (HR), stroke work (SW) from [SV*(MAP−Pwp)], and systemic vascular resistance (SVR) from [(MAP-Rap)/CO)*80]. We also normalized measurements of SV, SW, and CO and organ oxygen delivery (DO2) to body weight. We calculated DO2 from CO×Hb×1.34 ml oxygen per gram of Hb, since Hb was 100% saturated at a PO2 of ˜400 mmHg. From the arterial catheter and distal port of the Swanz-Ganz catheter, we also took arterial and mixed venous blood samples, respectively, for analyses of PO2, PCO2, and pH.
# In addition, we placed another polyethylene catheter into the left jugular vein, also by percutaneous techniques, for infusion of the bacteria and intravenous fluids and for obtaining blood chemistry and hematological samples. Since the baseline Pwp found in this model usually averages≈8-10 mmHg, we infused normal saline solution as necessary to maintain Pwp relatively constant over the duration of this study. […] The Clinical Chemistry Laboratory at the Health Sciences Centre performed the clinical laboratory tests.
# We included 5 groups of animals in the initial phase of this study. These groups included a septic control group, a non-septic control group, a norepinephrine (NE) septic group, a gentisic acid sodium salt (GSS) septic group, and a GSS non-septic group. In each group, we made baseline measurements of hemodynamics and blood parameters after approximately 1 hr period of stability. In the septic groups, after initiation of the bacterial infusion, we repeated the measurements in the septic shock condition. […] In the septic control group, after the SS condition, we started an infusion of 5% dextrose in water (D5W) at approximately 40 ml/hr for the remainder of the study, since D5W was the diluent for both the NE and GSS treatments.
# In all groups, we then made posttreatment measurements at 3 hrs and 5 hrs after completion of the septic shock/sham-shock determinations.
# In this supplemental study, we examined the effect of gallic acid on hemodynamics and mitochondrial function in our Pseudomonas aeruginosa model in a manner identical to that described for GSS treatment.
# [2] = tested on: mitochondrial complex IV (cytochrome c oxidase); assay: Enzymatic activity of hepatic mitochondrial complex IV; type: biochemical, dog; conditions: hepatic mitochondria of treated septic dogs; mean ± SD
# Source text: As part of our assessment of mitochondrial function, we also measured the enzymatic activity of hepatic mitochondrial complex IV based on the rationale of Levy et al (10), since these investigators considered that dysfunction of complex IV was the most important determinant of abnormal mitochondrial function in SS. We determined complex IV activity spectrophotometrically by a temperature-controlled Ultrospec™ 2100 ultraviolet-visible spectrophotometer (Biopharmacia Biotech, Uppsala, Sweden) (17). Complex IV activity was measured at 25° C. by monitoring the absorbance decrease of reduced cytochrome c at 550 nm.
# [3] = pH in unbuffered solution; type: physicochemical
# [4] = septic dogs, 3 hrs posttreatment
# [5] = septic dogs, 5 hrs posttreatment
# [6] = septic dogs, baseline (before bacteria/treatment)
# [7] = septic dogs, septic shock (before treatment)
# [8] = septic dogs, septic shock condition (before treatment)
# [9] = septic dogs, listed as gentisic, sodium salt
smiles,measurement,setting,value
"O=C(O)c1cc(O)c(O)c(O)c1 [gallic acid, 3,4,5 trihydroxybenzoic acid]",Systemic vascular resistance,"[1]; septic dogs, 3 hrs post treatment",1673 dynes S/cm^5
same,ALT (alanine transaminase),[1]; [4],187 ± 68*^+! IU
same,AST (aspartate transaminase),[1]; [4],324 ± 104*^+$ IU
same,Arterial pH,[1]; [4],7.17 ± .10*^+@$
same,CK (creatine kinase),[1]; [4],3832 ± 3896*^+ IU
same,Cardiac output,[1]; [4],120 ± 400 mL/min/kg
same,LD (lactate dehydrogenase),[1]; [4],415 ± 192*^+#@$^ IU
same,Lactate,[1]; [4],.8 ± .4^#! nunol/L
same,Mean arterial pressure,[1]; [4],71 ± 10^*%@!$ mmHg
same,Oxygen delivery,[1]; [4],26 ± 7 mL/min/kg
same,Pulmonary wedge pressure,[1]; [4],11.6 ± 2.6^+ mmHg
same,Stroke work index,[1]; [4],62 ± 28*^+ ml mmHg/Kg
same,Troponin,[1]; [4],41 ± 92 ng/L
same,Systemic vascular resistance,"[1]; septic dogs, 5 hrs post treatment",1478 dynes S/cm^5
same,ALT (alanine transaminase),[1]; [5],189 ± 66*^+#! IU
same,AST (aspartate transaminase),[1]; [5],363 ± 89*^+$ IU
same,Arterial pH,[1]; [5],7.12
same,CK (creatine kinase),[1]; [5],5065 IU
same,Cardiac output,[1]; [5],130 ± 40 mL/min/kg
same,LD (lactate dehydrogenase),[1]; [5],513 IU
same,Lactate,[1]; [5],.75 ± .35^#! nunol/L
same,Mean arterial pressure,[1]; [5],60 ± 5*^%@!$ mmHg
same,Oxygen delivery,[1]; [5],22 ± 3 mL/min/kg
same,Pulmonary wedge pressure,[1]; [5],11.3 ± 2.1^+ mmHg
same,Stroke work index,[1]; [5],49 ± 20*^+ ml mmHg/Kg
same,Troponin,[1]; [5],69 ± 157* ng/L
same,Systemic vascular resistance,[1]; [6],3566 dynes S/cm^5
same,ALT (alanine transaminase),[1]; [6],33 ± 16 IU
same,AST (aspartate transaminase),[1]; [6],19 ± 3 IU
same,Arterial pH,[1]; [6],7.40 ± .05
same,CK (creatine kinase),[1]; [6],104 ± 35 IU
same,Cardiac output,[1]; [6],113 ± 20 mL/min/kg
same,Heart Rates,[1]; [6],49 ± 3
same,LD (lactate dehydrogenase),[1]; [6],36 ± 10 IU
same,Mean arterial pressure,[1]; [6],105 ± 14 mmHg
same,Oxygen delivery,[1]; [6],21 ± 6 mL/min/kg
same,Pulmonary wedge pressure,[1]; [6],11.3 ± 2.3 mmHg
same,Stroke work index,[1]; [6],212 ± 43 ml mmHg/Kg
same,Troponin,"[1]; septic dogs, baseline (before bacteria/treatment), index of myocardial injury",0 ± 3 ng/L
same,effect of treatment on mean arterial pressure (MAP),[1]; septic dogs,did not produce an increase in MAP
same,effect of treatment on blood lactate concentration,[1]; septic dogs,reduction in lactate at 3 hrs and 5 hrs posttreatment
same,ALT (alanine transaminase),[1]; [7],157 ± 61 IU
same,AST (aspartate transaminase),[1]; [7],241 ± 104*^+$ IU
same,Arterial pH,[1]; [7],7.25 ± .10*^+$
same,CK (creatine kinase),[1]; [7],2650 ± 3339 IU
same,LD (lactate dehydrogenase),[1]; [7],200 ± 98*^+$ IU
same,Systemic vascular resistance,[1]; [8],1257 dynes S/cm^5
same,Cardiac output,[1]; [8],150 ± 40 mL/min/kg
same,Heart Rates,[1]; [8],125 ± 28*^+
same,Mean arterial pressure,[1]; [8],64 ± 12*^+ mmHg
same,Oxygen delivery,[1]; [8],25 ± 6 mL/min/kg
same,Pulmonary wedge pressure,[1]; [8],10.4 ± 2.7^+ mmHg
same,Stroke work index,[1]; [8],72 ± 32*^+ ml mmHg/Kg
same,Troponin,[1]; [8],14 ± 15 ng/L
same,enzymatic activity of mitochondrial complex IV,[2],2.44±0.63 umol/min/mg protein
same,pH in unbuffered solution,[3],4.2
"O=C([O-])c1cc(O)ccc1O.[Na+] [GSS, 2,5-dihydroxybenzoic acid sodium salt]",time of infusion until systemic blood pressure reached the baseline value,[1]; one dog of the gentisic septic group (FIG. 4),approximately 20 minutes
same,"arterial pH at the end of the study, compared among groups",[1]; septic dogs,higher
same,effect of treatment on stroke work index,"[1]; septic dogs, 3 hr and 5 hr vs septic control group, did not reach statistical significance",an increase in stroke work index
same,effect of treatment on heart rate (HR),[1]; [9],significant decrease in HR
same,effect of treatment on heart rate (HR),"[1]; septic dogs, sodium salt",heart rates were lower
same,effect of treatment on systemic vascular resistance (SVR),"[1]; septic dogs, 3 hrs and 5 hrs posttreatment vs septic shock condition, sodium salt",increased SVR back to the baseline value; also recorded: an increase in SVR
same,ALT (alanine transaminase),[1]; [4],209 ± 158*^+! IU
same,AST (aspartate transaminase),[1]; [4],235 ± 167*^+$ IU
same,Arterial pH,[1]; [4],7.24 ± .08*^+$^
same,CK (creatine kinase),[1]; [4],1847 ± 1763^! IU
same,Oxygen delivery,[1]; [4],20 ± 7 mL/min/kg
same,ALT (alanine transaminase),[1]; [5],225 ± 171*^+ IU
same,AST (aspartate transaminase),[1]; [5],279 ± 208*^+!$ IU
same,Arterial pH,[1]; [5],7.20 ± 0.06*^+#$^
same,CK (creatine kinase),[1]; [5],2857 ± 2527*^!^ IU
same,Oxygen delivery,[1]; [5],20 ± 19 mL/min/kg
same,ALT (alanine transaminase),[1]; [6],51 ± 29 IU
same,AST (aspartate transaminase),[1]; [6],29 ± 31 IU
same,Arterial pH,[1]; [6],7.38 ± .03
same,CK (creatine kinase),[1]; [6],117 ± 106 IU
same,Oxygen delivery,[1]; [6],18 ± 3 mL/min/kg
same,effect of treatment on mean arterial pressure (MAP),"[1]; septic dogs, sodium salt",increased MAP back to the baseline value; also recorded: return in MAP to baseline
same,effect of treatment on blood lactate concentration,[1]; [9],did not increase and even tended to decrease slightly
same,effect of treatment on blood lactate concentration,"[1]; septic dogs, sodium salt",did not change
same,ALT (alanine transaminase),[1]; [7],161 ± 132 IU
same,AST (aspartate transaminase),[1]; [7],143 ± 113 IU
same,Arterial pH,[1]; [7],7.26
same,CK (creatine kinase),[1]; [7],521 ± 750 IU
same,Oxygen delivery,[1]; [8],26 ± 6 mL/min/kg
same,enzymatic activity of mitochondrial complex IV,[2],3.68±0.59 umol/min/mg protein
same,pH in unbuffered solution,[3],8.2

# — patent US9833425B2, “Gentisic acid is used to improve systemic hemodynamics, hepatic mitochondrial function and lactate acidemia in patients with septic shock” (priority 2015, dated 2017)
